Assays:
[1] = tested on: conscious rat with acute gastric fistula (gastric secretion); test: Anti-secretory activity in the conscious rat with acute gastric fistula; assay type: in vivo, rat (fasted female rats); settings: 16 μg/Kg i.v., N 3 (A), 2 (B)
Procedure: That the compounds of this invention are active as anti-secretory and anti-ulcerogenic agents can be seen by administering the following compounds: Compound A= nat 11R-methyl-16R-fluoro-15R-hydroxy-9-oxo-prost-(Z)-5-enoic acid. Compound b= nat 11R-methyl-16R-fluoro-9,15-dioxo-prost-(Z)-5-enoic acid to rats by the following test:
The compounds were tested as gastric secretory depressants in the unanesthetized rat with acute gastric fistula. […] On the day of the experiment, water infusion through the stomach was begun for a period of 60 minutes prior to drug administration. During this baseline period, the pH of the secretory flow was about 1.5 for each animal. Individual samples were collected at 10-minute intervals during this baseline period to monitor the pH. The compound dissolved in saline was administered intravenously (i.v.), 16 μg/Kg i.v., after this baseline period and samples were continuously collected for 60 minutes. The samples of gastric contents were subsequently assayed for pH, volume, total acid content (μ Eq/ml) and total acid output for 10 minutes (μ Eq/10 minutes).

[2] = tested on: DOCA-Na Hypertensive Rat Model; test: Oral activity on systolic blood pressure in the DOCA-Na hypertensive rat model; assay type: in vivo, rat (Charles River male rats); settings: N 6
Procedure: That the compounds of this invention are active as blood pressure lowering agents can be seen from the administration of nat. 11R-methyl-16R-fluoro-9,15-dioxoprosta-(Z)-5-(E)-13-dienoic acid to rats by the following test:
Charles River male rats weighing 170-210 grams are used in the present study. DOCA-Na hypertension is induced in these rats by unilateral nephrectomy followed by subcutaneous implantation of a 25 mg deoxycorticosterone acetate pellet. Animals are placed in individual cages and receive 0.9% by weight sodium chloride aqueous solution and rat chow diet ad libitum. Two weeks are allowed to elapse from the time of surgery for development of hypertension, i.e. systolic blood pressure above 150 mmHg. Systolic blood pressure is measured indirectly from the tail of unanesthetized rats (restrained in holders heated for 5-10 minutes at 37°-38° C.) using a pneumatic pulse transducer (piezoelectric crystal and occluding cuff). The transducer and occluding cuff are coupled to a two-channel recorder. Control readings are taken prior to drug and at 1, 3, 6, 24, 48 and 72 hours post administration of drug. All drugs are prepared fresh in a mixture of tris(hydroxymethyl)amino methane in 95% ethanol (5% wt/V) and orally administered to rats. The placebo that was used was the mixture tris(hydroxymethyl)amino methane in ethanol without drug.

[3] = 10 min after administration, rounded figures
[4] = 10 min after administration, rounded, 0 = no effect
[5] = 10 min after administration, rounded, 0 = no effect, or increase in the hydrogen ion concentration
[6] = 20 min after administration, rounded figures
[7] = 20 min after administration, rounded, 0 = no effect
[8] = 30 min after administration, rounded figures
[9] = 40 min after administration, rounded figures
[10] = 50 min after administration, rounded figures
[11] = 60 min after administration, rounded figures
[12] = 60 min after administration, rounded, 0 = no effect

| Compound | Acid Output, % Inhibition (calculated from μ Eq/10 min period of total acid output) [1, 3] [%] | pH, % Increment over baseline [1, 3] [%] | Volume, % Inhibition [1, 4] [%] | Acid Conc., % Inhibition (calculated from μ Eq/ml of total acid concentration) [1, 5] [%] | Acid Conc., % Inhibition (calculated from μ Eq/ml of total acid concentration) [1, 6] [%] | Acid Output, % Inhibition (calculated from μ Eq/10 min period of total acid output) [1, 6] [%] | pH, % Increment over baseline [1, 6] [%] | Volume, % Inhibition [1, 7] [%] | Acid Conc., % Inhibition (calculated from μ Eq/ml of total acid concentration) [1, 8] [%] | Acid Output, % Inhibition (calculated from μ Eq/10 min period of total acid output) [1, 8] [%] | Volume, % Inhibition [1, 8] [%] | pH, % Increment over baseline [1, 8] [%] | Acid Conc., % Inhibition (calculated from μ Eq/ml of total acid concentration) [1, 9] [%] | Acid Output, % Inhibition (calculated from μ Eq/10 min period of total acid output) [1, 9] [%] | Volume, % Inhibition [1, 9] [%] | pH, % Increment over baseline [1, 9] [%] | Acid Conc., % Inhibition (calculated from μ Eq/ml of total acid concentration) [1, 10] [%] | Acid Output, % Inhibition (calculated from μ Eq/10 min period of total acid output) [1, 10] [%] | Volume, % Inhibition [1, 10] [%] | pH, % Increment over baseline [1, 10] [%] | other results |
| --- | --- | --- | --- | --- | --- | --- | --- | --- | --- | --- | --- | --- | --- | --- | --- | --- | --- | --- | --- | --- | --- |
| CCCC[C@@H](F)[C@H](O)CC[C@H]1[C@H](C)CC(=O)[C@@H]1C/C=C\CCCC(=O)O [Compound A, nat 11R-methyl-16R-fluoro-15R-hydroxy-9-oxo-prost-(Z)-5-enoic acid] | 4 | 5 | 0 | 0 | 22 | 17 | 6 | 0 | 20 | 33 | 58 | 4 | 23 | 26 | 21 | 5 | 38 | 43 | 9 | 9 | Acid Conc., % Inhibition (calculated from μ Eq/ml of total acid concentration) [1, 11]: 22%; Acid Output, % Inhibition (calculated from μ Eq/10 min period of total acid output) [1, 11]: 25%; pH, % Increment over baseline [1, 11]: 9%; Volume, % Inhibition [1, 12]: 0% |
| CCCC[C@@H](F)C(=O)CC[C@H]1[C@H](C)CC(=O)[C@@H]1C/C=C\CCCC(=O)O [Compound B, nat 11R-methyl-16R-fluoro-9,15-dioxo-prost-(Z)-5-enoic acid] | 40 | 2 | 9 | 33 | 6 | 22 | 2 | 30 | 11 | 15 | 4 | 2 | 2 | 14 | 11 | 2 | 15 | 20 | 16 | 2 | Acid Conc., % Inhibition (calculated from μ Eq/ml of total acid concentration) [1, 11]: 19%; Acid Output, % Inhibition (calculated from μ Eq/10 min period of total acid output) [1, 11]: 48%; pH, % Increment over baseline [1, 11]: 5%; Volume, % Inhibition [1, 12]: 35% |
| CCCC[C@@H](F)C(=O)/C=C/[C@H]1[C@H](C)CC(=O)[C@@H]1C/C=C\CCCC(=O)O [nat 11R-methyl-16R-fluoro-9,15-dioxoprosta-5(Z),13(E)-dienoic acid] | – | – | – | – | – | – | – | – | – | – | – | – | – | – | – | – | – | – | – | – | Systolic Blood Pressure ([2]; 1.0 mg/kg p.o., 1 h): 200±6 mmHg; Systolic Blood Pressure ([2]; 1.0 mg/kg p.o., 3 h): 205±6 mmHg; Systolic Blood Pressure ([2]; 1.0 mg/kg p.o., 6 h): 203±8 mmHg; Systolic Blood Pressure ([2]; 1.0 mg/kg p.o., 24 h): 199±6 mmHg; Systolic Blood Pressure ([2]; 1.0 mg/kg p.o., time 0 h (control reading prior to drug)): 196±6 mmHg; Systolic Blood Pressure ([2]; 5.0 mg/kg p.o., 1 h, * p<.05): 175±2 mmHg; Systolic Blood Pressure ([2]; 5.0 mg/kg p.o., 3 h, * p<.05): 167±4 mmHg; Systolic Blood Pressure ([2]; 5.0 mg/kg p.o., 6 h, * p<.05): 166±3 mmHg; Systolic Blood Pressure ([2]; 5.0 mg/kg p.o., 24 h, * p<.05): 163±4 mmHg; Systolic Blood Pressure ([2]; 5.0 mg/kg p.o., 48 h, * p<.05): 171±7 mmHg; Systolic Blood Pressure ([2]; 5.0 mg/kg p.o., 72 h): 193±6 mmHg; Systolic Blood Pressure ([2]; 5.0 mg/kg p.o., time 0 h (control reading prior to drug)): 197±3 mmHg |

Source: US4163016A, “16-Substituted prostaglandins” (Hoffmann-La Roche Inc., priority 1977, dated 1979)
